In patent US8329645B2, “Polymyxin derivatives and uses thereof” (priority 2008, dated 2012):

What was measured:
S. maltophilia ATCC17444 = experiment: E-test MIC with or without NAB7061 (4 μg/ml), Mueller-Hinton agar; format: cell-based
Method: (§1) MICs were determined by using E-strips (Biodisk Ltd., Solna, Sweden) according to the manufacturer's instructions.
(§2) The strains originated from ATCC (11 strains), CCUG (11 strains), and NCTC (The National Collection of Type Cultures, Colindale, U.K.; 2 strains). Eight strains (the F-strains) were purchased from Mobidiag Ltd., Helsinki, Finland.

P. vulgaris ATCC13315 = experiment: as above; format: cell-based
Method: as §1, §2

P. aeruginosa ATCC 27853 = experiment: E-test MIC of antibiotics on Mueller Hinton agar containing increasing concentrations of NAB739; format: cell-based, Pseudomonas aeruginosa
K. pneumoniae F144 = experiment: E-test MIC with or without NAB7061 (4 μg/ml), Mueller-Hinton agar; format: cell-based, Klebsiella pneumoniae
Method: as §1, §2

K. pneumoniae F145 = experiment: as above; format: cell-based, Klebsiella pneumoniae
Method: as §1, §2

K. pneumoniae CCUG45421 = experiment: as above; format: cell-based, Klebsiella pneumoniae
Method: as §1, §2

K. pneumoniae F136 = experiment: as above; format: cell-based, Klebsiella pneumoniae
Method: as §1, §2

[1] = tested on: both Acinetobacter strains (ATCC 19606 and F264); experiment: E-test sensitization by NAB739, both strains; format: cell-based, Acinetobacter baumannii
E. coli IH3080 = experiment: Sensitization to rifampin: growth inhibition around wells on LB plates containing rifampin; format: cell-based, Escherichia coli; conditions: in the absence of the compounds tested
P. aeruginosa CCUG51971 = experiment: E-test MIC with or without NAB7061 (4 μg/ml), Mueller-Hinton agar; format: cell-based, Pseudomonas aeruginosa
Method: as §1, §2

P. aeruginosa ATCC27853 = experiment: as above; format: cell-based, Pseudomonas aeruginosa
Method: as §1, §2

P. aeruginosa F58 = experiment: as above; format: cell-based, Pseudomonas aeruginosa
Method: as §1, §2

A. baumannii ATCC19606 = experiment: E-test MIC of antibiotics on Mueller Hinton agar containing increasing concentrations of NAB739; format: cell-based, Acinetobacter baumannii
E. cloacae F232 = experiment: E-test MIC with or without NAB7061 (4 μg/ml), Mueller-Hinton agar; format: cell-based, Enterobacter cloacae
Summary of the method: (§3)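 E-strip MIC determination, run as instructed by the manufacturer.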

E. cloacae CCUG52947 = experiment: as above; format: cell-based, Enterobacter cloacae
Summary of the method: as §3

E. cloacae F230 = experiment: as above; format: cell-based, Enterobacter cloacae
Summary of the method: as §3

E. cloacae ATCC23355 = experiment: as above; format: cell-based, Enterobacter cloacae
Summary of the method: as §3

For `CO[C@H]1/C=C/O[C@@]2(C)Oc3c(C)c(O)c4c(O)c(c(/C=N/N5CCN(C)CC5)c(O)c4c3C2=O)NC(=O)/C(C)=C\C=C\[C@H](C)[C@H](O)[C@@H](C)[C@@H](O)[C@@H](C)[C@H](OC(C)=O)[C@@H]1C` [Rifampin], the “MIC of antibiotic in the presence of 4 μg/ml of NAB 7061” value (“MIC of antibiotic … of NAB 7061” for short) (S. maltophilia ATCC17444) was 2 µg/mL, the “Sensitization factor to antibiotic (MIC without / with 4 μg/ml of NAB 7061)” value (S. maltophilia ATCC17444) was 4-8 and the “MIC of antibiotic … of NAB 7061” value (P. vulgaris ATCC13315) was 1 to 1.5 µg/mL. For the same compound, the “Sensitization factor to antibiotic (MIC without / with 4 μg/ml of NAB 7061)” value (P. vulgaris ATCC13315) was under 2, the “MIC of antibiotic in the presence of NAB739” value (from here on “MIC of antibiotic … of NAB739”) (P. aeruginosa ATCC 27853; NAB 739 0 μg/ml) was 32 µg/mL and the “MIC of antibiotic … of NAB739” value (P. aeruginosa ATCC 27853; NAB 739 0.5 μg/ml) was 32 µg/mL. For the same compound, the “MIC of antibiotic … of NAB739” value (P. aeruginosa ATCC 27853; NAB 739 1 μg/ml) was 16 µg/mL, the “MIC of antibiotic … of NAB739” value (P. aeruginosa ATCC 27853; NAB 739 2 μg/ml) was 4 µg/mL and the “MIC of antibiotic … of NAB739” value (P. aeruginosa ATCC 27853; NAB 739 […]) was 32 µg/mL. For the same compound, the “MIC of antibiotic … of NAB 7061” value (K. pneumoniae F144) was 0.19 µg/mL, the “Sensitization factor to antibiotic (MIC without / with 4 μg/ml of NAB 7061)” value (K. pneumoniae F144) was over 170 and the “MIC of antibiotic … of NAB 7061” value (K. pneumoniae F145) was 0.19 to 0.25 µg/mL. The “Sensitization factor to antibiotic (MIC without / with 4 μg/ml of NAB 7061)” value (K. pneumoniae F145) was 170, the “MIC of antibiotic … of NAB 7061” value (K. pneumoniae CCUG45421) was 2 to 3 µg/mL and the “Sensitization factor to antibiotic (MIC without / with 4 μg/ml of NAB 7061)” value (K. pneumoniae CCUG45421) was 10-20. The “MIC of antibiotic … of NAB 7061” value (K. pneumoniae F136) was 0.75 µg/mL, the “Sensitization factor to antibiotic (MIC without / with 4 μg/ml of NAB 7061)” value (K. pneumoniae F136) was over 43 and the “sensitization factors to antibiotic at NAB739 0.5 μg/ml” value [1] was 85-128. For the same compound, the “concentration of rifampin needed for the inhibitory effect” value (E. coli IH3080) was 10 µg/mL, the “MIC of antibiotic … of NAB 7061” value (P. aeruginosa CCUG51971) was over 32 µg/mL and the “Sensitization factor to antibiotic (MIC without / with 4 μg/ml of NAB 7061)” value (P. aeruginosa CCUG51971) was under 2. The “MIC of antibiotic … of NAB 7061” value (P. aeruginosa ATCC27853) was 12 to 16 µg/mL, the “Sensitization factor to antibiotic (MIC without / with 4 μg/ml of NAB 7061)” value (P. aeruginosa ATCC27853) was 2 and the “MIC of antibiotic … of NAB 7061” value (P. aeruginosa F58) was over 32 µg/mL. The “Sensitization factor to antibiotic (MIC without / with 4 μg/ml of NAB 7061)” value (P. aeruginosa F58) was under 2, the “MIC of antibiotic … of NAB739” value (A. baumannii ATCC19606; NAB 739 0 μg/ml) was 4 µg/mL and the “MIC of antibiotic … of NAB739” value (A. baumannii ATCC19606; NAB 739 0.5 μg/ml) was 0.047 µg/mL. The “MIC of antibiotic … of NAB739” value (A. baumannii ATCC19606; NAB 739 1 μg/ml) was 0.006 µg/mL, the “MIC of antibiotic … of NAB 7061” value (E. cloacae F232) was 0.023 µg/mL and the “Sensitization factor to antibiotic (MIC without / with 4 μg/ml of NAB 7061)” value (E. cloacae F232) was 1400. For the same compound, the “MIC of antibiotic … of NAB 7061” value (E. cloacae CCUG52947) was 0.032 to 0.047 µg/mL, the “Sensitization factor to antibiotic (MIC without / with 4 μg/ml of NAB 7061)” value (E. cloacae CCUG52947) was 500-1000 and the “MIC of antibiotic … of NAB 7061” value (E. cloacae F230) was 0.016 to 0.032 µg/mL. For the same compound, the “Sensitization factor to antibiotic (MIC without / with 4 μg/ml of NAB 7061)” value (E. cloacae F230) was 1500, the “MIC of antibiotic … of NAB 7061” value (E. cloacae ATCC23355) was 8 to 16 ng/mL and the “Sensitization factor to antibiotic (MIC without / with 4 μg/ml of NAB 7061)” value (E. cloacae ATCC23355) was 750-1500.
